Source: patent publication US4656166A, “Antibiotic compounds derived from cephalosporins, process for their production and pharmaceutical compositions” (Sanofi, priority 1983, dated 1987)
Values after ≈ are worked out from the molar mass of the structure shown. Read-outs that look alike come from different tables or passages of the source.

Experiments:
[1] = tested on: Klebsiella RO 30; assay: septicemic model of the mouse, Klebsiella RO 30 (Table V); assay type: in vivo; details: RO30, sc, 96 h, mouse septicemia, sub-cutaneous, 4 days observation, read-out: DE50 (the source's name)
[2] = tested on: Escherichia coli SOL 90; assay: septicemic model of the mouse, Escherichia coli SOL 90 (Table V); assay type: in vivo; details: SOL90, sc, 96 h, mouse septicemia, sub-cutaneous, 1 to 5 hours after inoculation, 4 days observation, read-out: DE50 (the source's name)
Procedure: The therapeutic effectiveness of the products was determined on the septicemic model of the mouse. the septicemia was initiated by the intraperitoneal innoculation of 0.5 ml of a suitable dilution of a suspension of the Escherichia coli SOL 90 strain. The products were administered in solution in a phosphate buffer pH 7.0 in a volume of 0.2 ml sub-cutaneously to batches of 10 mice, 1 to 5 hours after innoculation of the microorganism. After 4 days of observation in the course of which the mortality was noted, the 50% effective doses (DE 50) were calculated by the Muench and Reed method.

[3] = tested on: Pseudomonas RL 112; assay: MIC, in vitro dilution method, Pseudomonas RL 112 (Table III); assay type: cell-based; details: RL112
Procedure, shortened: (§1)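 Compounds are serially diluted in vitro and tested for bacteriostatic effect on each Gram-negative strain; the lowest inhibiting concentration is recorded as MIC (μg/ml).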

[4] = tested on: Proteus vulgaris GN 76/C.1; assay: MIC on beta-lactamase producing strain Proteus vulgaris GN 76/C.1 (Table IV); assay type: cell-based; details: GN76
Procedure: (§2) To evaluate the stability of these products towards beta-lactamases, their MIC was determined on isogenic strains producing and not producing beta-lactamases.
(§3) The results are expressed in μg/ml in Table IV.

[5] = tested on: Serratia RL 72; assay: MIC, in vitro dilution method, Serratia RL 72 (Table III); assay type: cell-based; details: RL72
Procedure, shortened: as §1

[6] = tested on: Escherichia coli SOL 90; assay: MIC, in vitro dilution method, Escherichia coli SOL 90 (Table III); assay type: cell-based; details: SOL90; Escherichia coli SOL 90; dilution method; read-out: MIC
Procedure, shortened: as §1

[7] = tested on: Klebsiella RO 30; assay: MIC, in vitro dilution method, Klebsiella RO 30 (Table III); assay type: cell-based; details: RO30
Procedure, shortened: as §1

[8] = tested on: Proteus vulgaris RL 99 bis; assay: MIC, in vitro dilution method, Proteus vulgaris RL 99 bis (Table III); assay type: cell-based; details: RL99BIS
Procedure, shortened: as §1

[9] = tested on: Citrobacter RL 49; assay: MIC, in vitro dilution method, Citrobacter RL 49 (Table III); assay type: cell-based; details: RL49
Procedure, shortened: as §1

[10] = tested on: Escherichia coli 255/L.7; assay: MIC on strain not producing beta-lactamase, Escherichia coli 255/L.7 (Table IV); assay type: cell-based; details: Escherichia coli 255/L.7 *, not producing beta-lactamases; read-out: MIC
Procedure: as §2, §3

[11] = tested on: Serrtia liquefaciens SL 1326 S; assay: MIC on strain not producing beta-lactamase, Serratia liquefaciens SL 1326 S (Table IV); assay type: cell-based; details: SL1326S, not producing beta-lactamases
Procedure: as §2, §3

[12] = tested on: Serrtia liquefaciens SL/326 A; assay: MIC on beta-lactamase producing strain Serratia liquefaciens SL/326 A (Table IV); assay type: cell-based
Procedure: as §2, §3

[13] = tested on: Enterobacter RO 154; assay: MIC, in vitro dilution method, Enterobacter RO 154 (Table III); assay type: cell-based; details: RO154; Enterobacter RO 154; dilution method; read-out: MIC
Procedure, shortened: as §1

[14] = tested on: Escherichia coli 255; assay: MIC on beta-lactamase producing strain Escherichia coli 255 (Table IV); assay type: cell-based
Procedure: as §2, §3

[15] = tested on: Proteus vulgaris GN 76/C.1/3; assay: MIC on strain not producing beta-lactamase, Proteus vulgaris GN 76/C.1/3 (Table IV); assay type: cell-based; details: GN76, not producing beta-lactamases
Procedure: as §2, §3

[16] = Proteus vulgaris GN 76/C.1, producing beta-lactamases, read-out: MIC
[17] = Klebsiella RO 30, dilution method, read-out: MIC
[18] = Proteus vulgaris RL 99 bis, dilution method, read-out: MIC
[19] = Citrobacter RL 49, dilution method, read-out: MIC
[20] = Escherichia coli 255, producing beta-lactamases, read-out: MIC

| SMILES | ED50 [1] | ED50 [2] | MIC [3] | MIC [4, 16] | MIC [5] | MIC [6] | MIC [7, 17] | MIC [8, 18] | MIC [9, 19] | MIC [10] | MIC [11] | MIC [12] | MIC [13] | MIC [14, 20] | MIC [15] | MIC ([4]; Proteus vulgaris) | MIC ([8]; Proteus vulgaris) | MIC ([7]; Klebsiella) | MIC ([9]; Citrobacter) | MIC ([14]; Escherichia coli, 255) |
| --- | --- | --- | --- | --- | --- | --- | --- | --- | --- | --- | --- | --- | --- | --- | --- | --- | --- | --- | --- | --- |
| CC(C)(O/N=C(\C(=O)NC1C(=O)N2C(C(=O)O)=C(COC(=O)CCN)C[S+]([O-])C12)c1csc(N)n1)C(=O)O (stereo not shown) [41 730] | 0.79 mg/kg | 1.4 mg/kg | 4 µg/mL (≈ 6.99 µM) | 0.25 µg/mL (≈ 0.437 µM) | 1 µg/mL (≈ 1.75 µM) | 0.5 µg/mL (≈ 0.873 µM) | 0.25 µg/mL (≈ 0.437 µM) | ≤ 0.12 µg/mL | 0.25 µg/mL (≈ 0.437 µM) | ≤ 0.12 µg/mL | ≤ 0.12 µg/mL | 0.5 µg/mL (≈ 0.873 µM) | 0.25 µg/mL (≈ 0.437 µM) | 0.25 µg/mL (≈ 0.437 µM) | – | – | – | – | – | – |
| CC(C)(O/N=C(\C(=O)NC1C(=O)N2C(C(=O)O)=C(COC(=O)c3ccc(CN)cc3)C[S+]([O-])C12)c1csc(N)n1)C(=O)O (stereo not shown) [42 042] | – | 0.05 mg/kg | 4 µg/mL (≈ 6.3 µM) | ≤ 0.12 µg/mL | 2 µg/mL (≈ 3.15 µM) | ≤ 0.12 µg/mL | ≤ 0.12 µg/mL | ≤ 0.12 µg/mL | ≤ 0.12 µg/mL | ≤ 0.12 µg/mL | ≤ 0.12 µg/mL | 0.25 µg/mL (≈ 0.394 µM) | 1 µg/mL (≈ 1.58 µM) | ≤ 0.12 µg/mL | ≤ 0.12 µg/mL | – | – | – | – | – |
| CC(C)(O/N=C(\C(=O)NC1C(=O)N2C(C(=O)O)=C(COC(=O)[C@H]3CC[C@H](CN)CC3)C[S+]([O-])C12)c1csc(N)n1)C(=O)O (stereo partly shown) [42 117] | – | 0.11 mg/kg | 4 µg/mL (≈ 6.24 µM) | ≤ 0.06 µg/mL | 0.5 µg/mL (≈ 0.78 µM) | 0.25 µg/mL (≈ 0.39 µM) | ≤ 0.12 µg/mL | ≤ 0.12 µg/mL | 0.25 µg/mL (≈ 0.39 µM) | 0.06 µg/mL (≈ 0.0936 µM) | ≤ 0.06 µg/mL | 0.12 µg/mL (≈ 0.187 µM) | 1 µg/mL (≈ 1.56 µM) | 0.125 µg/mL (≈ 0.195 µM) | ≤ 0.06 µg/mL | – | – | – | – | – |
| Cc1ccc(CN)c(C)c1C(=O)OCC1=C(C(=O)O)N2C(=O)C(NC(=O)/C(=N\OC(C)(C)C(=O)O)c3csc(N)n3)C2[S+]([O-])C1 (stereo not shown) [42 457] | – | – | 8 µg/mL (≈ 12.1 µM) | – | 0.5 µg/mL (≈ 0.754 µM) | 0.5 µg/mL (≈ 0.754 µM) | 0.25 µg/mL (≈ 0.377 µM) | – | 0.25 µg/mL (≈ 0.377 µM) | ≤ 0.0312 µg/mL | 0.0625 µg/mL (≈ 0.0943 µM) | 0.0625 µg/mL (≈ 0.0943 µM) | 0.25 µg/mL (≈ 0.377 µM) | 0.125 µg/mL (≈ 0.189 µM) | 0.0625 µg/mL (≈ 0.0943 µM) | ≤ 0.0312 µg/mL | ≤ 0.125 µg/mL | – | – | – |
| CC(C)(O/N=C(\C(=O)NC1C(=O)N2C(C(=O)O)=C(COC(=O)c3csc(NC(=O)CN)n3)C[S+]([O-])C12)c1csc(N)n1)C(=O)O (stereo not shown) [42 466] | – | – | 4 µg/mL (≈ 5.84 µM) | – | 2 µg/mL (≈ 2.92 µM) | 0.5 µg/mL (≈ 0.73 µM) | 0.5 µg/mL (≈ 0.73 µM) | – | 0.25 µg/mL (≈ 0.365 µM) | 0.125 µg/mL (≈ 0.183 µM) | ≤ 0.0312 µg/mL | 1 µg/mL (≈ 1.46 µM) | 0.5 µg/mL (≈ 0.73 µM) | 0.125 µg/mL (≈ 0.183 µM) | 0.0625 µg/mL (≈ 0.0913 µM) | ≤ 0.0312 µg/mL | ≤ 0.125 µg/mL | – | – | – |
| CC(C)(ON=C(C(=O)NC1C(=O)N2C(C(=O)O)=C(CSC(=O)c3ccc(CN)cc3)C[S+]([O-])C12)c1csc(N)n1)C(=O)O (stereo not shown) [compound 42119] | – | 0.16 mg/kg | 8 µg/mL (≈ 12.3 µM) | 0.12 µg/mL (≈ 0.184 µM) | 4 µg/mL (≈ 6.15 µM) | 0.5 µg/mL (≈ 0.768 µM) | 0.5 µg/mL (≈ 0.768 µM) | ≤ 0.12 µg/mL | 0.25 µg/mL (≈ 0.384 µM) | 0.12 µg/mL (≈ 0.184 µM) | ≤ 0.06 µg/mL | 0.25 µg/mL (≈ 0.384 µM) | 8 µg/mL (≈ 12.3 µM) | 0.25 µg/mL (≈ 0.384 µM) | – | – | – | – | – | – |
| NCC(=O)Nc1ccc(C(=O)OCC2=C(C(=O)O)N3C(=O)C(NC(=O)C(=NOC4(C(=O)O)CCC4)c4csc(N)n4)C3[S+]([O-])C2)cc1 (stereo not shown) [42 548] | – | – | 2 µg/mL (≈ 2.9 µM) | – | 0.5 µg/mL (≈ 0.725 µM) | 0.25 µg/mL (≈ 0.362 µM) | – | – | – | ≤ 0.0312 µg/mL | ≤ 0.0312 µg/mL | 0.125 µg/mL (≈ 0.181 µM) | 0.25 µg/mL (≈ 0.362 µM) | – | 0.0625 µg/mL (≈ 0.0906 µM) | 0.0625 µg/mL (≈ 0.0906 µM) | ≤ 0.125 µg/mL | 0.125 µg/mL (≈ 0.181 µM) | ≤ 0.125 µg/mL | 0.625 µg/mL (≈ 0.906 µM) |
